Assay [1] has as its target Human LDHA (Homo sapiens (Human), UniProt P00338). Description: human LDHA primary biochemical assay (resazurin/diaphorase coupled, fluorescence). The source says: Test compounds were placed in a Greiner Bio-One (Monroe, N.C.) 1536-well black solid bottom assay plate. 200 millimolar (mM) Tris HCl, pH 7.4, 100 micromolar […] EDTA and 0.01% TWEEN-20™, final concentration, was used as the assay buffer. The LDHA reagent was 2 nanomolar (nM) Human LDHA (Meridian Life Science, Inc., Memphis, Tenn.), final concentration, in assay buffer.

In assay [2] the test system is MiaPaCa2 cells. Briefly: cell-based HT lactate assay, colorimetric/fluorometric detection (inhibition of lactate production). Particulars: class symbols, 0 to 3 pluses. The protocol:
Cell-based HT Lactate assay is a miniaturized Biovision Lactate Colorimetric/Fluorometric Assay Kit (Cat #K607-100). The assay is roughly a 3.5 hour assay run in a 1536 plate format. Cell number optimization should be run for each cell line to achieve an optimal number in which lactate production equals roughly 90% of the standard curve range. Cell number per well optimization has been performed with the following cell lines: MiaPaCa2—500 cells/well, SNU398—500 cells/well, and P493—500 cells/well.
The lactate activity in Table 8 is represented by 0 to 3 pluses as follows: +++<1 μM; ++1-10 μM; +10-57 μM; and −>57 μM.

Setting [3] is: LDHA inhibitory activity, activity level based on IC50 (Table 7).
[4] abbreviates: LDHA inhibitory activity, assay of Example 1, activity level classes.
Where [5] appears, read: read-out: Inhibitory activity IC50.

Results on 31 molecules are retold here after patent publication US10961200B2, “Small molecule inhibitors of lactate dehydrogenase and methods of use thereof” (THE UNITED STATES OF AMERICA, AS REPRESENTED BY THE …, priority 2014, dated 2021).

Like-named read-outs stand apart in the source and are kept apart here. Where only a bound is given, the exact number is not on record here.

`CC#Cc1cc(-c2nn(-c3nc(C(=O)O)cs3)c(CC3CC3)c2Cc2cccc([S+](N)(=O)[O-])c2)ccc1F` [Compound 422]: the concentration for half-maximal inhibition (IC50) was below 100 nM in assay [1] (setting [3]) and 10000 to 57000 nM in assay [2].

On to `NS(=O)(=O)c1ccc(Cc2c(-c3cccc(OC4CCCC4)c3)nn(-c3nc(C(=O)O)cs3)c2CC2CC2)cc1` [Compound 337], for which the IC50 in assay [1] (setting [4]) is below 100 nM; in assay [2] it was below 1000 nM.

On to `N=[S+](N)([O-])c1ccc(Cc2c(-c3ccc(F)c(-c4cccc(F)c4)c3)nn(-c3nc(C(=O)O)cs3)c2CC2CC2)cc1F` (centres unmarked) [Compound 371], for which the values for the IC50 in assay [1] (setting [3]) and in assay [2] were below 100 nM and below 1000 nM, respectively.

Turning to `Cc1ccc(Oc2cc(-c3nn(-c4nc(C(=O)O)cs4)c(CC4CC4)c3Cc3ccc(S(N)(=O)=O)c(F)c3)ccc2F)cc1` [Compound 510, 2-(5-(cyclopropylmethyl)-3-(4-fluoro-3-(p-tolyloxy)phenyl)-4-(3-fluoro-4-sulfamoylbenzyl)-1H-pyrazol-1-yl)thiazole-4-carboxylic Acid], the IC50 was below 100 nM in assay [1] (setting [3]) and below 1000 nM in assay [2] (Homo sapiens, MIA PaCa-2).

For `NS(=O)(=O)c1ccc(Cc2c(-c3ccc(F)c(C#CC4(F)CCCC4)c3)nn(-c3nc(C(=O)O)cs3)c2CC2CC2)cc1F` [Compound 436], the results for the half-inhibitory concentration (IC50) in assay [1] (setting [3]) and in assay [2] were below 100 nM and below 1000 nM, respectively.

Regarding `NS(=O)(=O)c1ccc(Cc2c(-c3cccc(-c4ccccc4)c3)nn(-c3nc(C(=O)O)cs3)c2CC2CC2)cc1F` [Compound 331], the 50% inhibitory concentration (IC50) in assay [1] (setting [4]) was below 100 nM; in assay [2] it was below 1000 nM.

As for `NS(=O)(=O)c1ccc(Cc2c(-c3cccc(N4CCCC(C(F)(F)F)C4)c3)nn(-c3nc(C(=O)O)cs3)c2CC2CC2)cc1F` (centres unmarked) [Compound 396], the figures for the IC50 in assay [1] (setting [3]) and in assay [2] were below 100 nM and 1000 to 10000 nM, respectively.

Regarding `COCC#Cc1cc(-c2nn(-c3nc(C(=O)O)cs3)c(CC3CC3)c2Cc2ccc([S+](N)(=O)[O-])c(F)c2)ccc1F` [Compound 404], the IC50 is below 100 nM in assay [1] (setting [3]) and below 1000 nM in assay [2] (Homo sapiens, MIA PaCa-2).

In the case of `N#CC#Cc1cc(-c2nn(-c3nc(C(=O)O)cs3)c(CC3CC3)c2Cc2ccc(S(N)(=O)=O)c(F)c2)ccc1F` [Compound 442], the IC50 in assay [1] (setting [3]) is below 100 nM; in assay [2] it was 1000 to 10000 nM.

`COc1cccc(-c2cc(F)cc(-c3nn(-c4nc(C(=O)O)cs4)c(CC4CC4)c3Cc3ccc(S(N)(=O)=O)cc3)c2)c1` [Compound 478, 2-(5-(cyclopropylmethyl)-3-(5-fluoro-3′-methoxy-[1,1′-biphenyl]-3-yl)-4-(4-sulfamoylbenzyl)-1H-pyrazol-1-yl)thiazole-4-carboxylic Acid]: the IC50 was below 100 nM in assay [1] (setting [3]) and 1000 to 10000 nM in assay [2] (Homo sapiens, MIA PaCa-2).

As to `NS(=O)(=O)c1ccc(Cc2c(-c3cccc(N4CCC(F)(F)C4)c3)nn(-c3nc(C(=O)O)cs3)c2CC2CC2)cc1F` [Compound 395], the results for the half-inhibitory concentration (IC50) in assay [1] (setting [3]) and in assay [2] were 1000 to 57000 nM and 10000 to 57000 nM, respectively.

With `NS(=O)(=O)c1ccc(Cc2c(-c3cccc(OC4CCCC4)c3)nn(-c3nc(C(=O)O)cs3)c2CC2CC2)cc1F` [Compound 336], the IC50 was below 100 nM in assay [1] (setting [4]) and below 1000 nM in assay [2].

With `Cc1cc(-c2cccc(F)c2)cc(-c2nn(-c3nc(C(=O)O)cs3)c(CC3CC3)c2Cc2ccc(S(N)(=O)=O)cc2)c1` [Compound 505, 2-(5-(cyclopropylmethyl)-3-(3′-fluoro-5-methyl-[1,1′-biphenyl]-3-yl)-4-(4-sulfamoylbenzyl)-1H-pyrazol-1-yl)thiazole-4-carboxylic Acid], the IC50 in assay [1] (setting [3]) was below 100 nM; in assay [2] (Homo sapiens, MIA PaCa-2), 1000 to 10000 nM.

With `Cc1csc(-c2cc(-c3nn(-c4nc(C(=O)O)cs4)c(CC4CC4)c3Cc3ccc(S(N)(=O)=O)c(F)c3)ccc2F)c1` [Compound 223, 2-(5-(cyclopropylmethyl)-3-(4-fluoro-3-(4-methylthiophen-2-yl)phenyl)-4-(3-fluoro-4-sulfamoylbenzyl)-1H-pyrazol-1-yl)thiazole-4-carboxylic acid], the IC50 is below 100 nM in assay [1] (setting [5]) and below 1000 nM in assay [2] (Homo sapiens, MIA PaCa-2).

For the molecule `NS(=O)(=O)c1ccc(Cc2c(-c3cccc(Oc4cccc(F)c4)c3)nn(-c3nc(C(=O)O)cs3)c2CC2CC2)cc1` [Compound 526, 2-(5-(cyclopropylmethyl)-3-(3-(3-fluorophenoxy)phenyl)-4-(4-sulfamoylbenzyl)-1H-pyrazol-1-yl)thiazole-4-carboxylic Acid], the 50% inhibitory concentration (IC50) was in the range of 100 to 1000 nM in assay [1] (setting [3]) and 10000 to 57000 nM in assay [2] (Homo sapiens, MIA PaCa-2).

`Cc1ccc(-c2cc(-c3nn(-c4nc(C(=O)O)cs4)c(CC4CC4)c3Cc3ccc(S(N)(=O)=O)c(F)c3)ccc2F)o1` [Compound 230, 2-(5-(cyclopropylmethyl)-3-(4-fluoro-3-(5-methylfuran-2-yl)phenyl)-4-(3-fluoro-4-sulfamoylbenzyl)-1H-pyrazol-1-yl)thiazole-4-carboxylic acid]: the 50% inhibitory concentration (IC50) was below 100 nM in assay [1] (setting [5]) and below 1000 nM in assay [2] (Homo sapiens, MIA PaCa-2).

Consider `Cc1ccc(-c2cccc(-c3nn(-c4nc(C(=O)O)cs4)c(CC4CC4)c3Cc3ccc(S(N)(=O)=O)cc3)c2)cc1` [Compound 281], for which the IC50 in assay [1] (setting [4]) was below 100 nM; in assay [2], below 1000 nM.

In the case of `CCOC(=O)c1csc(-n2nc(-c3cccc(-c4ccc(C)cc4)c3)c(Cc3ccc(S(N)(=O)=O)c(F)c3)c2CC2CC2)n1` [Compound 266], the values for the IC50 in assay [1] (setting [4]) and in assay [2] were 1000 to 57000 nM and above 57000 nM, respectively.

Take `Cc1ccc(-c2cc(-c3nn(-c4nc(C(=O)O)cs4)c(CC4CC4)c3Cc3ccc(S(N)(=O)=O)cc3F)ccc2F)s1` [Compound 233, 2-(5-(cyclopropylmethyl)-3-(4-fluoro-3-(5-methylthiophen-2-yl)phenyl)-4-(2-fluoro-4-sulfamoylbenzyl)-1H-pyrazol-1-yl)thiazole-4-carboxylic acid]: the 50% inhibitory concentration (IC50) in assay [1] (setting [5]) is below 100 nM; in assay [2] (Homo sapiens, MIA PaCa-2) it was below 1000 nM.

Take `NS(=O)(=O)c1ccc(Cc2c(-c3ccc(F)c(C4CC4)c3)nn(-c3nc(C(=O)O)cs3)c2CC2CC2)cc1Cl` [Compound 406]: the figures for the half-maximal inhibitory concentration (IC50) in assay [1] (setting [3]) and in assay [2] were below 100 nM and 1000 to 10000 nM, respectively.

For `N[S+](=O)([O-])c1ccc(Cc2c(-c3ccc(F)c(C4CC4)c3)nn(-c3nc(C(=O)O)cs3)c2CC2CC2)cc1F` [Compound 385], the half-inhibitory concentration (IC50) in assay [1] (setting [3]) is below 100 nM; in assay [2], below 1000 nM.

`NS(=O)(=O)c1ccc(Cc2c(-c3ccc(F)c(Oc4ccc(F)cc4)c3)nn(-c3nc(C(=O)O)cs3)c2CC2CC2)cc1F` [Compound 511, 2-(5-(cyclopropylmethyl)-3-(4-fluoro-3-(4-fluorophenoxy)phenyl)-4-(3-fluoro-4-sulfamoylbenzyl)-1H-pyrazol-1-yl)thiazole-4-carboxylic Acid]: the IC50 in assay [1] (setting [3]) was below 100 nM; in assay [2] (Homo sapiens, MIA PaCa-2) it was 1000 to 10000 nM.

With `CC(C)c1ccc(-c2cc(-c3nn(-c4nc(C(=O)O)cs4)c(CC4CC4)c3Cc3ccc([S+](N)(=O)[O-])cc3)ccc2F)cc1` [Compound 306], the IC50 in assay [1] (setting [4]) was below 100 nM; in assay [2], below 1000 nM.

With `NS(=O)(=O)c1ccc(Cc2c(-c3ccc(F)c(Oc4ccc(C(F)(F)F)cc4)c3)nn(-c3nc(C(=O)O)cs3)c2CC2CC2)cc1F` [Compound 512, 2-(5-(cyclopropylmethyl)-3-(4-fluoro-3-(4-(trifluoromethyl)phenoxy)phenyl)-4-(3-fluoro-4-sulfamoylbenzyl)-1H-pyrazol-1-yl)thiazole-4-carboxylic Acid], the IC50 was below 100 nM in assay [1] (setting [3]) and below 1000 nM in assay [2] (Homo sapiens, MIA PaCa-2).

For the molecule `NS(=O)(=O)c1ccc(Cc2c(-c3ccc(F)c(C#CC4CCC4)c3)nn(-c3nc(C(=O)O)cs3)c2CC2CC2)cc1F` [Compound 446], the figures for the IC50 in assay [1] (setting [3]) and in assay [2] were below 100 nM and below 1000 nM, respectively.

As for `NS(=O)(=O)c1ccc(Cc2c(-c3cccc(-c4ccccc4)c3)nn(-c3nc(C(=O)O)cs3)c2CC2CC2(F)F)cc1` (centres unmarked) [Compound 207, 2-(3-([1,1′-biphenyl]-3-yl)-5-((2,2-difluorocyclopropyl)methyl)-4-(4-sulfamoylbenzyl)-1H-pyrazol-1-yl)thiazole-4-carboxylic acid], the IC50 in assay [1] (setting [4]) was below 100 nM; in assay [2] (Homo sapiens, MIA PaCa-2), 1000 to 10000 nM.

With `N[S+](=O)([O-])c1ccc(Cc2c(-c3cccc(C#CC4CCCC4)c3)nn(-c3nc(C(=O)O)cs3)c2CC2CC2)cc1F` [Compound 432], the concentration for half-maximal inhibition (IC50) is below 100 nM in assay [1] (setting [3]) and below 1000 nM in assay [2].

On to `CC(C)(C)Cc1cc(-c2nn(-c3nc(C(=O)O)cs3)c(CC3CC3)c2Cc2ccc(S(N)(=O)=O)c(F)c2)ccc1F` [Compound 386], for which the results for the IC50 in assay [1] (setting [3]) and in assay [2] were below 100 nM and below 1000 nM, respectively.

Regarding `NS(=O)(=O)c1ccc(Cc2c(C3CC3(F)F)nn(-c3nc(C(=O)O)cs3)c2-c2cccc(-c3ccccc3)c2)cc1` (centres unmarked) [Compound 206, 2-(5-([1,1′-biphenyl]-3-yl)-3-(2,2-difluorocyclopropyl)-4-(4-sulfamoylbenzyl)-1H-pyrazol-1-yl)thiazole-4-carboxylic acid], the IC50 in assay [1] (setting [5]) fell in the range of 1000 to 57000 nM; in assay [2] (Homo sapiens, MIA PaCa-2), 1000 to 10000 nM.

As for `Cn1cc(-c2cc(-c3nn(-c4nc(C(=O)O)cs4)c(CC4CC4)c3Cc3ccc(S(N)(=O)=O)c(F)c3)ccc2F)cn1` [Compound 217, 2-(5-(cyclopropylmethyl)-3-(4-fluoro-3-(1-methyl-1H-pyrazol-4-yl)phenyl)-4-(3-fluoro-4-sulfamoylbenzyl)-1H-pyrazol-1-yl)thiazole-4-carboxylic acid], the IC50 was below 100 nM in assay [1] (setting [5]) and 1000 to 10000 nM in assay [2] (Homo sapiens, MIA PaCa-2).

Regarding `NS(=O)(=O)c1ccc(Cc2c(-c3ccc(F)c(-c4ccccc4)c3)nn(-c3nc(C(=O)O)cs3)c2CC2CC2)cc1` [Compound 257], the IC50 in assay [1] (setting [4]) was below 100 nM; in assay [2], below 1000 nM.
